According to patent publication US9220799B2, “Bactericidal agent composition” (SUNSTAR ENGINEERING INC., priority 2012, dated 2015):

Experiments:
[1] = tested on: Pseudomonas aeruginosa NBRC13275; assay: Bactericidal test on carriers with adhered Pseudomonas aeruginosa and dried organic substance (AOAC Official Method 964.02), surviving cell count; Examples 1, 4, 5; type: cell-based
Method: The test was conducted in accordance with AOAC Official Method 964.02 Testing Disinfectants against Pseudomonas aeruginosa.
The water prepared as described above to contain oxygen-filled ultrafine bubbles or the purified water of the Japanese Pharmacopoeia was used to dilute povidone iodine such that it was conditioned to 100 mg/L.
A cryopreserved bacterial strain (Pseudomonas aeruginosa NBRC13275) was grown in a tryptic soy agar (Difco; hereinafter referred to as TSA medium) at 36±1° C. for 18-24 hours. The grown cells were transplanted into a tryptic soy broth (Difco; hereinafter referred to as TSB medium) where they were cultured at 36±1° C. for 18-24 hours. The liquids of the thus cultured cells were conditioned with a TSB medium to an approximate value of 10^6 CFU/mL and the resulting liquids were used as test bacterial liquids.
A sterile bioassay cup (stainless steel Penicillin Cup 441-01 made by Sogo Rikagagu glass; hereinafter designated as a carrier) was placed in a 100-mL beaker, into which test bacterial liquids were poured in such amounts that the carrier would be completely immersed (ca. 30-40 mL). After allowing the beaker to stand for 10-15 minutes, the carrier was transferred onto a Petri dish with sterile filter paper spread on the bottom and by allowing the Petri dish to stand at 36±1° C. for 40±2 minutes, the bacterial cells and the organic substance derived from the mediums were dried and adhered to the carrier.
The test liquids preliminarily held at 25±2° C. were each dispensed in 10 mL into centrifugal tubes having a capacity of 50 mL; using a hook of platinum wire, the carriers to which the test bacterium adhered were put into the centrifugal tubes, one for each, and allowed to act at 25±2° C. for 20 minutes. Thereafter, the carriers were transferred into centrifugal tubes containing 10 mL of an inactivator SCDLP medium (Eiken Chemical Co., Ltd.), one for each, so as to inactivate the bactericidal component in the test liquid adhering to the carrier. The carriers were then treated with a sonicator at 20±2° C. for 5 minutes to wash off the test bacterium; the test liquids were agitated for an additional minute with a vortex mixer to prepare sample liquids for cell count and the number of surviving cells was counted. A control was prepared by the same procedure as described above, except that the test liquids were replaced by sterile physiological saline.
The sample liquids for cell count (stock liquids) were serially diluted 10-fold with sterile physiological saline; the sample liquids or the series of dilutions, each weighing a volume of 1 mL, were transferred aseptically into Petri dishes and, after mixing with 20 mL of a TSA medium, they were solidified and cultured at 36±1° C. for 48 hours. Thereafter, colonies growing on the medium were counted to determine the number of surviving cells per carrier (lower limit for quantification: 10 CFU/carrier).
To obtain those results, the test was replicated in five runs (n=5) and after eliminating minimum and maximum values, an averaged cell count for n=3 was indicated as a logarithmic value.
An experiment was conducted by the same method as in Example 1, except for the following points: water containing oxygen-filled ultrafine bubbles prepared as described above or purified water was used to dilute povidone iodine such that it was conditioned to 100 mg/L; in addition, the most frequent particle density of the water containing ultrafine bubbles were adjusted to orders of 10^4, 10^5, 10^6, and 10^8 per mL.
An experiment was conducted by the same method as in Example 1, except that water containing atmospheric air- or C3F8-filled ultrafine bubbles prepared as described above or purified water was used to dilute povidone iodine such that it was conditioned to 100 mg/L.

[2] = tested on: Streptococcus mutans (ATCC25175) biofilm; assay: Bactericidal effect on cariogenic bacteria-formed biofilms, surviving cells in the biofilm; type: cell-based; details: Example 3, 37°C, 20 min
Method: Either water containing oxygen-filled ultrafine bubbles prepared as described above or purified water was used to dilute povidone iodine to condition the same to 1.0 mg/mL and 10 mg/mL.
Streptococcus mutans (ATCC25175) was grown in a Tryptic soy Broth supplemented with 0.5% yeast extract (the resulting medium is hereinafter referred to as TSBY medium) at 37° C. until the OD660 was between 0.6 and 0.8 (10^8 cells/mL); the product was used as a test bacterial liquid.
A TSBY medium (plus 1% sucrose) placed in a test tube in a volume of 4950 μL was inoculated with 50 μL of the test bacterial liquid and was cultured at 37° C. for 18 hours to form a biofilm.
From the test tube in which the biofilm was formed, the culture broth was removed by means of an aspirator and the biofilm was washed with 5 mL of an added PBS. After removing the PBS, 5 mL of the test liquid was treated for reaction as it was shaken with a shaking machine (37° C.×20 min). After the 20-min reaction, 5 mL of 0.4% (w/v) sodium thiosulfate in solution was added into the test tube so as to inactivate the bactericidal agent. Using a sonicator, the biofilm was detached from the inner surfaces of the test tube and dispersed with a vortex mixer thereby prepare a sample liquid for cell count; the number of surviving cells in the biofilm was then counted.
The sample liquids for cell count were diluted with a buffer solution; after culture in an MS agar medium (37° C.×36-48 hours), the number of colonies formed was counted to determine the number of surviving cells in the biofilms.
To obtain those results, the test was replicated in 5 runs (n=5).

[3] = Example 1, povidone iodine 100 mg/L conditioned with water (purified water), 25°C, 20 min
[4] = Example 1, povidone iodine 100 mg/L conditioned with water containing oxygen-filled ultrafine bubbles (91 nm; 3.1x10^8, total 2.3x10^10 particles/ml), 25°C, 20 min
[5] = Example 4, povidone iodine 100 mg/L conditioned with water (purified water)
[6] = Example 4, povidone iodine 100 mg/L, water containing oxygen-filled ultrafine bubbles, 81 nm, most frequent particle density 7.2 × 10^4, total 4.2 × 10^6 particles/ml
[7] = Example 4, povidone iodine 100 mg/L, water containing oxygen-filled ultrafine bubbles, 81 nm, most frequent particle density 7.2 × 10^5, total 4.2 × 10^7 particles/ml
[8] = Example 4, povidone iodine 100 mg/L, water containing oxygen-filled ultrafine bubbles, 81 nm, most frequent particle density 7.2 × 10^6, total 4.2 × 10^8 particles/ml
[9] = Example 4, povidone iodine 100 mg/L, water containing oxygen-filled ultrafine bubbles, 81 nm, most frequent particle density 7.2 × 10^8, total 4.2 × 10^10 particles/ml
[10] = Example 5, povidone iodine 100 mg/L conditioned with water (purified water)
[11] = Example 5, povidone iodine 100 mg/L, water containing C3F8-filled ultrafine bubbles (76 nm; 2.7x10^8, total 1.3x10^10 particles/ml)
[12] = Example 5, povidone iodine 100 mg/L, water containing atmospheric air-filled ultrafine bubbles (75 nm; 5.7x10^8, total 4.6x10^10 particles/ml)
[13] = povidone iodine concentration 1 (table head mg/L; text 1.0 mg/mL) conditioned with water (purified water)
[14] = povidone iodine concentration 1 (table head mg/L; text 1.0 mg/mL) conditioned with water containing oxygen-filled ultrafine bubbles (100 nm; 2.0x10^7, total 1.6x10^9 particles/ml)
[15] = povidone iodine concentration 10 (table head mg/L; text 10 mg/mL) conditioned with water (purified water)
[16] = povidone iodine concentration 10 (table head mg/L; text 10 mg/mL) conditioned with water containing oxygen-filled ultrafine bubbles (100 nm; 2.0x10^7, total 1.6x10^9 particles/ml)

povidone iodine
Cell count CFU/carrier average [1, 3]: 8000 CFU/carrier
Cell count CFU/carrier n1 [1, 3]: 23000 CFU/carrier
Cell count CFU/carrier n2 [1, 3]: 19000 CFU/carrier
Cell count CFU/carrier n3 [1, 3]: 26000 CFU/carrier
log value (averaged surviving cell count as logarithmic value) [1, 3]: 3.9
Cell count CFU/carrier average [1, 4]: 23 CFU/carrier
Cell count CFU/carrier n1 [1, 4]: 10 CFU/carrier
Cell count CFU/carrier n2 [1, 4]: 10 CFU/carrier
Cell count CFU/carrier n3 [1, 4]: 50 CFU/carrier
log value (averaged surviving cell count as logarithmic value) [1, 4]: 1.4
Cell count CFU/carrier average [1, 5]: 44000 CFU/carrier
Cell count CFU/carrier n1 [1, 5]: 46000 CFU/carrier
Cell count CFU/carrier n2 [1, 5]: 47000 CFU/carrier
Cell count CFU/carrier n3 [1, 5]: 39000 CFU/carrier
Log value [1, 5]: 4.6
Cell count CFU/carrier average [1, 6]: 5300 CFU/carrier
Cell count CFU/carrier n1 [1, 6]: 5900 CFU/carrier
Cell count CFU/carrier n2 [1, 6]: 2200 CFU/carrier
Cell count CFU/carrier n3 [1, 6]: 7700 CFU/carrier
Log value [1, 6]: 3.7
Observed bactericidal efficacy [1, 6]: Δ
Cell count CFU/carrier average [1, 7]: <10 CFU/carrier
Cell count CFU/carrier n1 [1, 7]: 4200 CFU/carrier
Cell count CFU/carrier n2 [1, 7]: <10 CFU/carrier
Cell count CFU/carrier n3 [1, 7]: <10 CFU/carrier
Log value [1, 7]: 3.1
Observed bactericidal efficacy [1, 7]: ○
Cell count CFU/carrier average [1, 8]: <10 CFU/carrier
Cell count CFU/carrier n1 [1, 8]: <10 CFU/carrier
Cell count CFU/carrier n2 [1, 8]: <10 CFU/carrier
Cell count CFU/carrier n3 [1, 8]: <10 CFU/carrier
Log value [1, 8]: <1.0
Observed bactericidal efficacy [1, 8]: ○
Cell count CFU/carrier average [1, 9]: <10 CFU/carrier
Cell count CFU/carrier n1 [1, 9]: <10 CFU/carrier
Cell count CFU/carrier n2 [1, 9]: <10 CFU/carrier
Cell count CFU/carrier n3 [1, 9]: <10 CFU/carrier
Log value [1, 9]: <1.0
Observed bactericidal efficacy [1, 9]: ○
Cell count CFU/carrier average [1, 10]: 4500 CFU/carrier
Cell count CFU/carrier n1 [1, 10]: 3200 CFU/carrier
Cell count CFU/carrier n2 [1, 10]: 1800 CFU/carrier
Cell count CFU/carrier n3 [1, 10]: 8600 CFU/carrier
Log value [1, 10]: 3.7
Cell count CFU/carrier average [1, 11]: <10 CFU/carrier
Cell count CFU/carrier n1 [1, 11]: <10 CFU/carrier
Cell count CFU/carrier n2 [1, 11]: <10 CFU/carrier
Cell count CFU/carrier n3 [1, 11]: <10 CFU/carrier
Log value [1, 11]: 1.0
Cell count CFU/carrier average [1, 12]: 32 CFU/carrier
Cell count CFU/carrier n1 [1, 12]: 10 CFU/carrier
Cell count CFU/carrier n2 [1, 12]: 75 CFU/carrier
Cell count CFU/carrier n3 [1, 12]: <10 CFU/carrier
Log value [1, 12]: 1.5
Cell count CFU average [2, 13]: 616.6 CFU
Cell count CFU n1 [2, 13]: 612 CFU
Cell count CFU n2 [2, 13]: 439 CFU
Cell count CFU n3 [2, 13]: 1050 CFU
Cell count CFU n4 [2, 13]: 386 CFU
Cell count CFU n5 [2, 13]: 596 CFU
Cell count CFU average [2, 14]: 149.2 CFU
Cell count CFU n1 [2, 14]: 250 CFU
Cell count CFU n2 [2, 14]: 35 CFU
Cell count CFU n3 [2, 14]: 178 CFU
Cell count CFU n4 [2, 14]: 150 CFU
Cell count CFU n5 [2, 14]: 133 CFU
Cell count CFU average [2, 15]: 9.2 CFU
Cell count CFU n1 [2, 15]: 9 CFU
Cell count CFU n2 [2, 15]: 22 CFU
Cell count CFU n3 [2, 15]: 13 CFU
Cell count CFU n4 [2, 15]: 0 CFU
Cell count CFU n5 [2, 15]: 2 CFU
Cell count CFU average [2, 16]: 0 CFU
Cell count CFU n1 [2, 16]: 0 CFU
Cell count CFU n2 [2, 16]: 0 CFU
Cell count CFU n3 [2, 16]: 0 CFU
Cell count CFU n4 [2, 16]: 0 CFU
Cell count CFU n5 [2, 16]: 0 CFU
